Laboratory results published in patent US20100292185A1, “BETA-LACTAMASE INHIBITORS” (priority 2009, published 2010).
Where a name gives a salt, the structure may show the parent alone. Read-outs that look alike come from different tables or passages of the source.

Key:
SHV-5 β-lactamase = biological target: T1, SHV-5 β-lactamase (Klebsiella pneumoniae, UniProt P0A3M1); assay: β-lactamase enzyme inhibition assay (nitrocefin substrate), SHV-5; type: biochemical
T1 construct: expressed as native untagged proteins; made in house; host or cells: E. coli BL21(DE3)
Summary of the method: (§1)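 Enzyme was first mixed with serially diluted compound (100 to 0.005 μM) in PBS pH 7.0 and held 10 min at 37 °C. Next, nitrocefin was dispensed to 100 μM final, and hydrolysis was followed at 486 nm for 10 min. Percent inhibition was then calculated from maximum rates and fitted to an IC50.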

CTX-M15 β-lactamase = biological target: T2, CTX-M15 β-lactamase (Escherichia coli, UniProt Q9EXV5); assay: β-lactamase enzyme inhibition assay (nitrocefin substrate), CTXM-15; type: biochemical
T2 construct: expressed as native untagged proteins; made in house; host or cells: E. coli BL21(DE3)
Summary of the method: as §1

p99 AmpC β-lactamase = biological target: T3, p99 AmpC β-lactamase (Enterobacter cloacae, UniProt P05364); assay: β-lactamase enzyme inhibition assay (nitrocefin substrate), P99 AmpC; type: biochemical
T3 construct: expressed as native untagged proteins; made in house; host or cells: E. coli BL21(DE3)
Summary of the method: as §1

KPC-2 β-lactamase = biological target: T4, KPC-2 β-lactamase (Klebsiella pneumoniae, UniProt Q9F663); assay: β-lactamase enzyme inhibition assay (nitrocefin substrate), KPC-2; type: biochemical
T4 construct: expressed as native untagged proteins; made in house; host or cells: E. coli BL21(DE3)
Summary of the method: as §1

[1] = biological target: T5, VIM-2 metallo β-lactamase (Pseudomonas aeruginosa, UniProt Q9K2N0); assay: β-lactamase enzyme inhibition assay (nitrocefin substrate), VIM-2; type: biochemical
T5 construct: made in house
Procedure: Isolation of β-lactamases. For SHV-5, p99 AmpC, KPC-2 and CTX-M15 β-lactamases, E. coli BL21(DE3) bacterial cells carrying expression plasmids (expressed as native untagged proteins) for the individual β-lactamases were grown in 1 L of Superbroth (Teknova Inc. Hollister, Calif.) supplemented with 100 μg/ml kanamycin and 1×5052 (0.5% glycerol, 0.05% glucose and 0.2% α-lactose) at 35° C. for 18-20 hours. Cells were harvested by centrifugation (4,000×g, 4° C., 20 min), and resuspended in 50 ml of 10 mM HEPES pH 7.5 (1/20 of the initial volume). The cells were lysed by sonication (5 pulses of 45 seconds) at 45 W on ice. The lysates were clarified by centrifugation at 10,000×g for 40 minutes at 4° C. Samples were diluted 5-fold in 50 mM sodium acetate pH 5.0, stored overnight at 4° C., after which they were centrifuged at 10,000×g for 30 minutes to clarify, and filtered through 0.45 μm filters. The samples were loaded onto a 5 ml Capto S sepharose cation exchange column (GE Healthcare) pre-equilibrated with 50 mM sodium acetate pH 5.0. The column was washed with 5 column volumes of 50 mM sodium acetate pH 5.0 to wash out unbound protein and a linear gradient of NaCl (0 to 500 mM) was used to elute the protein (over 16 CV) from the column. Fractions were assayed for β-lactamase activity using Centa (Calbiochem, Gibbstown, N.J.) as a reporter β-lactamase substrate for activity in the isolated fractions. Active fractions were pooled, concentrated and further purified by gel filtration chromatography on a Superdex 75 prep grade gel filtration column (GE Healthcare, Piscataway, N.J.) pre-equilibrated in 50 mM Hepes pH 7.5, 150 mM NaCl. Active fractions were pooled concentrated, quantitated by BCA protein determination (Thermo Scientific, Rockford, Ill.), and frozen at −80° C. in 20% glycerol until use.
For VIM-2 metallo (β-lactamase, the procedure was identical with the following exceptions: 1) the protein was not pH adjusted to pH 5 with 50 mM sodium acetate, 2) the chromatography step was changed to a 5 ml Q sepharose anion exchange column pre-equilibrated with 50 mM Hepes pH 7.5, and 3) elution of the protein was achieved by a linear gradient of NaCl (0-600 mM). Finally, the VIM-2 purification required a second run (3rd step) on the Q sepharose anion exchange column to achieve acceptable purity (>90%).
(§2) β-lactamase Inhibition. To determine the level of inhibition of β-lactamase enzymes, compounds were diluted in PBS at pH 7.0 to yield concentrations between 100 and 0.005 μM in microtiter plates. An equal volume of diluted enzyme stock was added, and the plates were incubated at 37° C. for 10 min. Nitrocefin solution was then dispensed as substrate into each well at a final concentration of 100 μM, and the plates were immediately read with the kinetic program at 486 nm for 10 min on the SPECTRAMAX® Plus^384 (high-throughput microplate spectrophotometer; Molecular Devices Corp., Sunnyvale, Calif.). Maximum rates of metabolism were then compared to those in control wells (without inhibitors), and percentages of enzyme inhibition were calculated for each concentration of inhibitor. The concentration of inhibitor needed to reduce the initial rate of hydrolysis of substrate by 50% (IC50) was calculated as the residual activity of β-lactamase at 486 nm using the SoftMax Pro 5.0 software (Molecular Devices Corp.).
Using the methodology described above, examples of the current invention were evaluated for their ability to inhibit β-lactamase enzymes. The results of these assays are summarized in Table 2 for representative enzymes across different subtypes (note SHV-5 and CTXM-15 exemplify different subclasses of Ambler Class A Extended Spectrum Beta Lactamases, KPC-2 exemplifies Class A carbapenemases, P99 represents chromosomal Class C AmpC, VIM-2 exemplifies subclass B1 of metallo-β-lactamases, and OXA-23 represents chromosome-encoded Class D oxacillin-hydrolyzing β-lactamases), NT=not tested.

OXA-23 β-lactamase = biological target: T6, OXA-23 β-lactamase (Acinetobacter baumannii, UniProt Q9L4P2); assay: β-lactamase enzyme inhibition assay (nitrocefin substrate), OXA-23 crude extract; type: biochemical
T6 construct: crude β-lactamase extracts were prepared from 20 ml overnight cultures; endogenous in cells; host or cells: Acinetobacter baumannii cells containing OXA-23 (crude freeze-thaw extract)
Procedure: For OXA-23 β-lactamase, crude β-lactamase extracts were prepared from 20 ml overnight cultures with shaking. Acenitobacter baumanni cells containing OXA-23 were further diluted 10-fold and grown to mid-log phase (OD at 600 nm, 0.5-0.8) in Mueller-Hinton II (MH-II) broth at 37° C. The cells were pelleted at 5000 g, washed and resuspended in 2 mL PBS pH 7.0. The β-lactamases were extracted by four cycles of freezing and thawing followed by centrifugation. β-lactamase activity in the extracts was measured with the chromogenic cephalosporin nitrocefin. The amount of protein in each β-lactamase preparation was determined by the bicinchoninic acid (BCA) assay.
as §2

[2] = system: E. coli expressing the Class A ESBL SHV-5; assay: In vitro antibacterial assay of β-lactamase inhibition (broth microdilution MIC), E. coli SHV-5; type: cell-based; details: in presence of Ceftazidime 8 μg/ml (Examples 1-56)
Summary of the method: (§3)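 CAMHB microdilution, CLSI inoculum. Cells grown 3-5 h + 50 μg/mL ampicillin. Cpd 2-fold serial, 8–0.015 μg/mL final, with β-lactam partner. 37° C, 16-20 h; visual MIC.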

[3] = system: K. pneumoniae expressing the Class A Extended Spectrum Beta-Lactamase (ESBL) CTX-M-15; assay: In vitro antibacterial assay of β-lactamase inhibition (broth microdilution MIC), K. pneumoniae CTX-M-15; type: cell-based; details: in presence of Ceftazidime 8 μg/ml (Examples 1-56)
Summary of the method: as §3

[4] = system: E. cloacae expressing the Class C P99+; assay: In vitro antibacterial assay of β-lactamase inhibition (broth microdilution MIC), E. cloacae P99+; type: cell-based; details: in presence of Ceftazidime 8 μg/ml (Examples 1-56)
Summary of the method: as §3

[5] = system: K. pneumoniae expressing the Class A carbapenemase KPC-2; assay: microbe, parasite or virus in culture; type: cell-based; details: in presence of Ceftazidime 8 μg/ml (Examples 1-56)
Summary of the method: as §3

[6] = system: P. aeruginosa expressing the Class B metallo β-lactamase VIM-2; assay: In vitro antibacterial assay of β-lactamase inhibition (broth microdilution MIC), P. aeruginosa VIM-2; type: cell-based; details: in presence of Ceftazidime 16 μg/mL (Examples 1-56)
Summary of the method: as §3

[7] = nitrocefin 100 μM, 37° C., PBS pH 7.0, read-out: P99 AmpC IC50
[8] = nitrocefin 100 μM, 37° C., PBS pH 7.0, read-out: VIM-2 IC50
[9] = nitrocefin 100 μM, 37° C., PBS pH 7.0, read-out: OXA-23 IC50

T6 sequence (Q9L4P2 18-273): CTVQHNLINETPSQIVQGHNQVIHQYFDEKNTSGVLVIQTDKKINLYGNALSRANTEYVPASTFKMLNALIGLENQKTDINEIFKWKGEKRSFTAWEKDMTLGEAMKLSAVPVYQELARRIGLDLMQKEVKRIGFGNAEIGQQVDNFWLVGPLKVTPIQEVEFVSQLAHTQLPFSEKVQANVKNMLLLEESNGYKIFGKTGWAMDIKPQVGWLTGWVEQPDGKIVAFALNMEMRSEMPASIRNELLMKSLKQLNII
T1 sequence (P0A3M1 22-286): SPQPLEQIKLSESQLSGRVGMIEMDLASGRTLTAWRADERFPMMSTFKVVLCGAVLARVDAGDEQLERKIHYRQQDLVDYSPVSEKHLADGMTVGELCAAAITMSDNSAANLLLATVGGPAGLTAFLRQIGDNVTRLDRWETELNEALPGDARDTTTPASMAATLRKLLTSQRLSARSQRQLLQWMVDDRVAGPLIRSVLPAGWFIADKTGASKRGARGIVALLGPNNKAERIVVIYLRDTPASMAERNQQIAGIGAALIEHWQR
T2 sequence (Q9EXV5 entry or part of it): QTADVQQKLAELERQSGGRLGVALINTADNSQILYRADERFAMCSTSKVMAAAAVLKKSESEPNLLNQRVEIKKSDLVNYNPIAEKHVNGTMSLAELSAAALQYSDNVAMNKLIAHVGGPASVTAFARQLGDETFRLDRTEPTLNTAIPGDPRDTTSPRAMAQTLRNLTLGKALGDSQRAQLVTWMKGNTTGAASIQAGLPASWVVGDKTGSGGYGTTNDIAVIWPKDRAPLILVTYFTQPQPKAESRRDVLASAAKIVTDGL
T3 sequence (P05364 21-381): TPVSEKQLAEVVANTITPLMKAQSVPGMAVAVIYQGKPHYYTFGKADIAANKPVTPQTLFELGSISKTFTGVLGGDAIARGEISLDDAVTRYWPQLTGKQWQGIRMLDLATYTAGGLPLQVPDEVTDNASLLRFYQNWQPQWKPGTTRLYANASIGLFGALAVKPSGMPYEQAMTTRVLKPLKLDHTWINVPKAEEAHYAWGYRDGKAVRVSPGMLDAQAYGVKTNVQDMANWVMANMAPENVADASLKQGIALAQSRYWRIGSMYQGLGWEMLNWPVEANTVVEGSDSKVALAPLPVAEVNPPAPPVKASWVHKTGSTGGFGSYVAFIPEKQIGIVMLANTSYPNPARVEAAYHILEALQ
T4 sequence (Q9F663 25-293 limits assumed): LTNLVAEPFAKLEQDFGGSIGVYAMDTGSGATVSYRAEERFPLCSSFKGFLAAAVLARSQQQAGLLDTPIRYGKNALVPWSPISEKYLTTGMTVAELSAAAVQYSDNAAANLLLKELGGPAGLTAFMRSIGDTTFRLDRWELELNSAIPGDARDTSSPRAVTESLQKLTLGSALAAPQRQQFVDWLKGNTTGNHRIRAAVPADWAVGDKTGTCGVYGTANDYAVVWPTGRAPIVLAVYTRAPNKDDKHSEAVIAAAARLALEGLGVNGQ

Row | Structure (SMILES) | IC50 (SHV-5 β-lactamase) | IC50 (CTX-M15 β-lactamase) | IC50 (p99 AmpC β-lactamase; [7]) | IC50 (KPC-2 β-lactamase) | IC50 [1, 8] | IC50 (OXA-23 β-lactamase; [9]) | MIC of example compound, E. coli SHV-5 [2] | MIC of example compound, K. pneumoniae CTX-M-15 [3] | MIC of example compound, E. cloacae P99+ [4] | MIC of example compound, K. pneumoniae KPC-2 [5] | MIC of example compound, P. aeruginosa VIM-2 [6] | IC50 (p99 AmpC β-lactamase) | IC50 [1] | IC50 (OXA-23 β-lactamase)
1 | CN(C)Cc1ccc(C(=O)N[C@@H](Cc2cccc(C(=O)O)c2O)B(O)O)cc1 [Example 4, 2(R)-3-[2-(4-(N,N-Dimethylaminomethyl)benzoylamino)-2-borono-ethyl]-2-hydroxy-benzoic acid formate salt] | 0.6 nM | 3 nM | 3 nM | 4 nM | > 1000 nM | 99 nM | 1 µg/mL | 0.25 µg/mL | 2 µg/mL | 0.06 µg/mL | >8 µg/mL |  |  | 
2 | Cl.O=C(N[C@@H](Cc1cccc(C(=O)O)c1O)B(O)O)c1ccc(N2CCNCC2)nc1 [Example 9, (2R)-3-{2-[(2-(1-piperazinyl)-pyridine-5-carbonyl)-amino]-2-borono-ethyl}-2-hydroxy-benzoic acid hydrochloride] | > 1000 nM | 83 nM | 2 nM | 6 nM | 242 nM | > 1000 nM | 4 µg/mL | 1 µg/mL | 0.25 µg/mL | <0.01 µg/mL | >8 µg/mL |  |  | 
3 | CC(=O)Nc1ccc(C(=O)N[C@@H](Cc2cccc(C(=O)O)c2O)B(O)O)cn1 [Example 10, (2R)-3-{2-[(2-(acetylamino)-pyridine-5-carbonyl)-amino]-2-borono-ethyl}-2-hydroxy-benzoic acid] | 319 nM | 3 nM | 3 nM | 4 nM | 680 nM | 580 nM | 1 µg/mL | 0.25 µg/mL | 0.5 µg/mL | 0.01 µg/mL | >8 µg/mL |  |  | 
4 | CNCc1ccc(C(=O)N[C@@H](Cc2cccc(C(=O)O)c2O)B(O)O)cc1.Cl [Example 11, (1R)-[4-(methylamino)methyl]-benzoylamino-(3-carboxy-2-hydroxy)benzyl-methyl boronic acid hydrochloride] | > 1000 nM | 4 nM | 1 nM | 4 nM | 57 nM | > 1000 nM | 8 µg/mL | 1 µg/mL | 0.25 µg/mL | <0.01 µg/mL | 8 µg/mL |  |  | 
5 | Cl.O=C(N[C@@H](Cc1cccc(C(=O)O)c1O)B(O)O)c1ccc(CN2CCCC(C(=O)O)C2)cc1 (stereo partly drawn) [Example 12, (1R)-[4-(piperidine-3-carboxylic acid)-methyl]-benzoylamino-(3-carboxy-2-hydroxy)benzyl-methyl boronic acid hydrochloride] | 870 nM | 3 nM | 900 nM | 11 nM | 930 nM | > 1000 nM | 4 µg/mL | 1 µg/mL | 2 µg/mL | 0.03 µg/mL | >8 µg/mL |  |  | 
6 | CC[N+](CC)(CC)Cc1ccc(C(=O)N[C@@H](Cc2cccc(C(=O)O)c2O)B(O)O)cc1 [Example 13, (1R)-(4-(triethylammonium)methyl)-benzoylamino-(3-carboxy-2-hydroxy)benzyl-methyl boronic acid bromide] | > 1000 nM | 14 nM |  | 3 nM |  |  | >8 µg/mL | >8 µg/mL | >8 µg/mL | 0.25 µg/mL | >8 µg/mL | 4 nM | 340 nM | > 1000 nM
7 | O=C(N[C@@H](Cc1cccc(C(=O)O)c1O)B(O)O)c1ccc(C[n+]2ccccc2)cc1 [Example 14, (1R)-[4-(pyridinium)-methyl]-benzoylamino-(3-carboxy-2-hydroxy)benzyl-methyl boronic acid chloride] | > 1000 nM | 1 nM |  | 21 nM |  |  | >8 µg/mL | >8 µg/mL | 0.5 µg/mL | 0.01 µg/mL | >8 µg/mL | 29 nM | 360 nM | > 1000 nM
8 | Cl.NCCNCc1ccc(C(=O)N[C@@H](Cc2cccc(C(=O)O)c2O)B(O)O)cc1 [Example 15, (1R)-[4-(2-amino-ethylamino)-methyl]-benzoylamino-(3-carboxy-2-hydroxy)benzyl-methyl boronic acid hydrochloride] | > 1000 nM | 7 nM | 5 nM | 18 nM | 47 nM | > 1000 nM | 4 µg/mL | 0.25 µg/mL | 4 µg/mL | 0.01 µg/mL | >8 µg/mL |  |  | 
